The structures appear in SMILES notation.

Experiment [1] deals with HCC827-SVD cells (human EGFR exon 20 insertion mutant D770_N771insSVD). In words: Cell growth inhibition (CellTiter-Glo), HCC827-SVD. It counts as cell-based. Conditions: 72 h, 3 days. The protocol:
(§1) Generation of HCC827-SVD, HCC827-ASV, and HCC827-YVMA cell lines. The HCC827-SVD cell line was generated by first transducing HCC827 cells (ATCC) with lentiviral particles expressing codon-optimized human EGFR exon 20 insertion mutant D770_N771insSVD, and then selecting under 5 µg/mL puromycin treatment for a week. The resulting cells were further transduced with lentiviral particles carrying EGFR sgRNA and CAS9 to knockout the endogenous alleles of EGER and then selected under 500 µg/mL hygromycin B treatment for two weeks. The limiting dilution approach was used to subsequently generate the single clone of the HCC827-SVD stable cell line. Endogenous EGFR knockout was confirmed by Sanger sequencing of cell genomic DNA, and expression of exogenous mutant EGFR was verified by Western blot analysis.
(§2) 2. Cell Growth Inhibition for HCC827, HCC827-SVD, HCC827-ASV, HCC827-YVMA, and A431.
(§3) HCC827(ATCC), HCC827-SVD, HCC827-ASV, and HCC827-YVMA cells were seeded in 96-well plates at 5000 cells/well in 90 μL of RPMI growth medium containing 10% FBS and 1% Penicillin Streptomycin. A431 (ATCC) cells were seeded in 96-well plates at 5000 cells/well in 90 μL of DMEM growth medium containing 10% FBS and 1% Penicillin Streptomycin. Cells were incubated at 37° C. overnight and then administered with 10 μL 10× test compounds prepared in the growth medium at various concentrations. After administration of the compounds, cells were incubated at 37° C. for 3 days. Before the CellTiter-Glo assay, the plates were equilibrated at room temperature for approximately 30 minutes. 100 ul of CellTiter-Glo reagent (Promega) was added to each well. The plates were then incubated at room temperature for 10 minutes and luminescence was recorded by the EnSight® multimode plate reader (PerkinElmer). Table 7 listed selected compounds in cellular growth assay.
(Cellular ATP, detected with luciferase, serves as a proxy for viable cell number.)

Experiment [2] relates to HCC827-YVMA cells (human ERBB2 exon20 insertion mutant A775_G776ins YVMA). In words: Cell growth inhibition (CellTiter-Glo), HCC827-YVMA. It counts as cell-based. Conditions: 72 h, HCC827-YVMA cells, 3 days, CellTiter-Glo, read-out: Cell growth inhibition, GI50 (nM) HCC827-YVMA. Here is the method: as §1
HCC827-ASV and HCC827-YVMA cell lines were generated in a similar approach as HCC827-SVD, except that HCC827 cells (ATCC) were first transduced with lentiviral particles expressing codon-optimized human EGFR exon 20 insertion mutant V769_D770insASV and human ERBB2 exon20 insertion mutant A775_G776ins YVMA, respectively.
as §2, §3

Consider `C=CC(=O)N1CCC(c2c[nH]c3ncnc(Nc4ccc(Oc5ccnc(N6C[C@H]7CCC[C@H]7C6)c5)cc4F)c23)CC1` [Compound 63, 1-(4-(4-((2-fluoro-4-((2-((3aR,6aS)-hexahydrocyclopenta[c]pyrrol-2(1H)-yl)pyridin-4-yl)oxy)phenyl)amino)-7H-pyrrolo[2,3-d]pyrimidin-5-yl)piperidin-1-yl)prop-2-en-1-one], for which the 50% growth inhibitory concentration (GI50) in experiment [1] and in experiment [2] was 200 to 1000 nM in each case.
Consider `C=CC(=O)N1CCC(c2c[nH]c3ncnc(Nc4ccc(Oc5ccnc(C6CCOCC6)c5)cc4F)c23)CC1` [Compound 64, 1-(4-(4-((2-fluoro-4-((2-(tetrahydro-2H-pyran-4-yl)pyridin-4-yl)oxy)phenyl)amino)-7H-pyrrolo[2,3-d]pyrimidin-5-yl)piperidin-1-yl)prop-2-en-1-one], for which the 50% growth inhibitory concentration (GI50) – broadly, the concentration that inhibits growth by half – is more than 1000 nM in experiment [1] and 200 to 1000 nM in experiment [2].
As for `C=CC(=O)N1CCC(c2c[nH]c3ncnc(Nc4ccc(Oc5ccnc(Nc6cccnc6)c5)cc4F)c23)CC1` [Compound 65, 1-(4-(4-((2-fluoro-4-((2-(pyridin-3-ylamino)pyridin-4-yl)oxy)phenyl)amino)-7H-pyrrolo[2,3-d]pyrimidin-5-yl)piperidin-1-yl)prop-2-en-1-one], the concentration for 50% growth inhibition (GI50) in experiment [1] and in experiment [2] was 200 to 1000 nM each time.
Regarding `C=CC(=O)N1CCC(c2c[nH]c3ncnc(Nc4ccc(Oc5ccnc(-c6ccn(C)n6)c5)cc4F)c23)CC1` [Compound 66, 1-(4-(4-((2-fluoro-4-((2-(1-methyl-1H-pyrazol-3-yl)pyridin-4-yl)oxy)phenyl)amino)-7H-pyrrolo[2,3-d]pyrimidin-5-yl)piperidin-1-yl)prop-2-en-1-one], the values for the 50% growth inhibitory concentration (GI50) in experiment [1] and in experiment [2] were 200 to 1000 nM and 50 to 200 nM, respectively.
As for `C=CC(=O)N1CCC(c2c[nH]c3ncnc(Nc4ccc(OCc5nnc[nH]5)c(Cl)c4)c23)CC1` [Compound 67, 1-(4-(4-((4-((4H-1,2,4-triazol-3-yl)methoxy)-3-chlorophenyl)amino)-7H-pyrrolo[2,3-d]pyrimidin-5-yl)piperidin-1-yl)prop-2-en-1-one], the GI50 in experiment [1] and in experiment [2] was 200 to 1000 nM in each case.
For `C=CC(=O)N1CCC(c2c[nH]c3ncnc(Nc4ccc(OCc5cnc6n5CCCC6)c(Cl)c4)c23)CC1` [Compound 68, 1-(4-(4-((3-chloro-4-((5,6,7,8-tetrahydroimidazo[1,2-a]pyridin-3-yl)methoxy)phenyl)amino)-7H-pyrrolo[2,3-d]pyrimidin-5-yl)piperidin-1-yl)prop-2-en-1-one], the GI50 in experiment [1] and in experiment [2] was less than 50 nM each time.
Consider `C=CC(=O)N1CCC(c2c[nH]c3ncnc(Nc4ccc(CNc5ccccn5)cc4F)c23)CC1` [Compound 69, 1-(4-(4-((2-fluoro-4-((pyridin-2-ylamino)methyl)phenyl)amino)-7H-pyrrolo[2,3-d]pyrimidin-5-yl)piperidin-1-yl)prop-2-en-1-one], for which the GI50 in experiment [1] and in experiment [2] was less than 50 nM each time.
Turning to `C=CC(=O)N1CCC(c2c[nH]c3ncnc(Nc4ccc(C(=O)Nc5ccccn5)cc4F)c23)CC1` [Compound 70, 4-((5-(1-acryloylpiperidin-4-yl)-7H-pyrrolo[2,3-d]pyrimidin-4-yl)amino)-3-fluoro-N-(pyridin-2-yl)benzamide], the GI50 in experiment [1] was less than 50 nM; in experiment [2], 50 to 200 nM.
For the molecule `C=CC(=O)N1CCC(c2c[nH]c3ncnc(Nc4ccc(OCc5cnccc5OC)c(Cl)c4)c23)CC1` [Compound 71, 1-(4-(4-((3-chloro-4-((4-methoxypyridin-3-yl)methoxy)phenyl)amino)-7H-pyrrolo[2,3-d]pyrimidin-5-yl)piperidin-1-yl)prop-2-en-1-one], the GI50 in experiment [1] and in experiment [2] was less than 50 nM each time.
As to `C=CC(=O)N1CCC(c2c[nH]c3ncnc(Nc4ccc(Oc5ccnc(Nc6nccs6)c5)cc4F)c23)CC1` [Compound 72, 1-(4-(4-((2-fluoro-4-((2-(thiazol-2-ylamino)pyridin-4-yl)oxy)phenyl)amino)-7H-pyrrolo[2,3-d]pyrimidin-5-yl)piperidin-1-yl)prop-2-en-1-one], the GI50 in experiment [1] lay within 200 to 1000 nM; in experiment [2], 50 to 200 nM.
Take `C=CC(=O)N1CCC(c2c[nH]c3ncnc(Nc4ccc(OCc5ccc6cc[nH]c6n5)c(Cl)c4)c23)CC1` [Compound 73, 1-(4-(4-((4-((1H-pyrrolo[2,3-b]pyridin-6-yl)methoxy)-3-chlorophenyl)amino)-7H-pyrrolo[2,3-d]pyrimidin-5-yl)piperidin-1-yl)prop-2-en-1-one]: the GI50 in experiment [1] and in experiment [2] was less than 50 nM throughout.
For `C=CC(=O)N1CCC(c2c(-c3ccc(N4CCN(C)CC4)cc3)[nH]c3ncnc(Nc4ccc(OCc5ccccn5)c(Cl)c4)c23)CC1` [Compound 74, 1-(4-(4-((3-chloro-4-(pyridin-2-ylmethoxy)phenyl)amino)-6-(4-(4-methylpiperazin-1-yl)phenyl)-7H-pyrrolo[2,3-d]pyrimidin-5-yl)piperidin-1-yl)prop-2-en-1-one], the concentration for 50% growth inhibition (GI50) in experiment [1] and in experiment [2] was less than 50 nM throughout.
`C=CC(=O)N1CCC(c2c[nH]c3ncnc(Nc4ccc(OCc5ccc6sccc6n5)c(Cl)c4)c23)CC1` [Compound 75, 1-(4-(4-((3-chloro-4-(thieno[3,2-b]pyridin-5-ylmethoxy)phenyl)amino)-7H-pyrrolo[2,3-d]pyrimidin-5-yl)piperidin-1-yl)prop-2-en-1-one]: the GI50 in experiment [1] and in experiment [2] was less than 50 nM in each case.
For `C=CC(=O)N1CCC(c2c(C)[nH]c3ncnc(Nc4ccc(OCc5ccccn5)c(Cl)c4)c23)CC1` [Compound 76, 1-(4-(4-((3-chloro-4-(pyridin-2-ylmethoxy)phenyl)amino)-6-methyl-7H-pyrrolo[2,3-d]pyrimidin-5-yl)piperidin-1-yl)prop-2-en-1-one], the GI50 in experiment [1] and in experiment [2] was less than 50 nM throughout.
Consider `C=CC(=O)N1CCC(c2c[nH]c3ncnc(Nc4ccc(OCc5cncnc5)c(Cl)c4)c23)CC1` [Compound 77, 1-(4-(4-((3-chloro-4-(pyrimidin-5-ylmethoxy)phenyl)amino)-7H-pyrrolo[2,3-d]pyrimidin-5-yl)piperidin-1-yl)prop-2-en-1-one], for which the GI50 in experiment [1] and in experiment [2] was less than 50 nM in each case.
Turning to `C=CC(=O)N1CCC(c2c[nH]c3ncnc(Nc4ccc(Oc5ccnc(Nc6cnccn6)c5)cc4F)c23)CC1` [Compound 78, 1-(4-(4-((2-fluoro-4-((2-(pyrazin-2-ylamino)pyridin-4-yl)oxy)phenyl)amino)-7H-pyrrolo[2,3-d]pyrimidin-5-yl)piperidin-1-yl)prop-2-en-1-one], the GI50 in experiment [1] is 200 to 1000 nM; in experiment [2], 50 to 200 nM.
Take `C=CC(=O)N1CCC(c2c[nH]c3ncnc(Nc4ccc(OCc5ccnc(N6CC7CC7C6)c5)cc4F)c23)CC1` (stereo not drawn) [Compound 79, 1-(4-(4-((4-((2-(3-azabicyclo[3.1.0]hexan-3-yl)pyridin-4-yl)methoxy)-2-fluorophenyl)amino)-7H-pyrrolo[2,3-d]pyrimidin-5-yl)piperidin-1-yl)prop-2-en-1-one]: the GI50 in experiment [1] and in experiment [2] was 200 to 1000 nM throughout.
For the molecule `C=CC(=O)N1CCC(c2c[nH]c3ncnc(Nc4ccc(OCc5cncc(OC)c5)c(Cl)c4)c23)CC1` [Compound 80, 1-(4-(4-((3-chloro-4-((5-methoxypyridin-3-yl)methoxy)phenyl)amino)-7H-pyrrolo[2,3-d]pyrimidin-5-yl)piperidin-1-yl)prop-2-en-1-one], the GI50 in experiment [1] and in experiment [2] was less than 50 nM each time.

For the origin of these results see US20240059698A1 (Accutar Biotechnology Inc., priority 2022, published 2024).
